Laboratory results reported in patent US8637550B2, “Heteroaryl diamide compounds useful as MMP-13 inhibitors” (Boehringer Ingelheim International GmbH, priority 2008, dated 2014).

What follows are molecules tested against MMP-13 (Homo sapiens, UniProt P45452) (assay: EnzoLyte 520 Generic MMP Assay Kit, 5-FAM/QXL520 FRET peptide substrate).
Type: biochemical
Source text: The EnzoLyte™ 520 Generic MMP Assay Kit (AnaSpec Inc.) can detect the activity of several MMPs including MMP-1, 2, 3, 7, 8, 9, 13, and 14. This kit uses a 5-FAM/QXL™520 fluorescence resonance energy transfer (FRET) peptide as an MMP substrate.

| SMILES | IC50 |
| --- | --- |
| CNC(=O)[C@@H](NC(=O)c1ccc(-c2cccc(CNC(=O)c3ccccc3)c2)o1)C(C)C [5-[3-(Benzoylamino-methyl)-phenyl]-furan-2-carboxylic acid ((S)-2-methyl-1-methylcarbamoyl-propyl)-amide] | 205 nM |
| CNC(=O)[C@@H](NC(=O)c1ccc(-c2ccc(-c3ccc4[nH]ccc4c3)cn2)o1)C(C)C [5-[5-(1H-Indol-5-yl)-pyridin-2-yl]-furan-2-carboxylic acid ((S)-2-methyl-1-methylcarbamoyl-propyl)-amide] | 260 nM |
| CNC(=O)[C@@H](NC(=O)c1ccc(-c2ccc(-c3ccc4cc[nH]c4c3)cn2)o1)C(C)C [5-[5-(1H-Indol-6-yl)-pyridin-2-yl]-furan-2-carboxylic acid ((S)-2-methyl-1-methylcarbamoyl-propyl)-amide] | 91 nM |
| CNC(=O)[C@@H](NC(=O)c1ccc(-c2ccc(-c3cc(F)cc(F)c3)cn2)o1)C(C)C [5-[5-(3,5-Difluoro-phenyl)-pyridin-2-yl]-furan-2-carboxylic acid ((S)-2-methyl-1-methylcarbamoyl-propyl)-amide] | 370 nM |
| CNC(=O)[C@@H](NC(=O)c1ccc(-c2ccc(-c3cccc(F)c3)cn2)o1)C(C)C [5-[5-(3-Fluoro-phenyl)-pyridin-2-yl]-furan-2-carboxylic acid ((S)-2-methyl-1-methylcarbamoyl-propyl)-amide] | 325 nM |
| CNC(=O)[C@@H](NC(=O)c1ccc(-c2ccc(-c3ccc(C#N)cc3)cn2)o1)C(C)C [5-[5-(4-Cyano-phenyl)-pyridin-2-yl]-furan-2-carboxylic acid ((S)-2-methyl-1-methylcarbamoyl-propyl)-amide] | 22 nM |
| CNC(=O)[C@@H](NC(=O)c1ccc(-c2ccc(-c3ccc(F)cc3)cn2)o1)C(C)C [5-[5-(4-Fluoro-phenyl)-pyridin-2-yl]-furan-2-carboxylic acid ((S)-2-methyl-1-methylcarbamoyl-propyl)-amide] | 78 nM |
| CNC(=O)[C@@H](NC(=O)c1ccc(-c2ccc(-c3ccc(C)cc3)cn2)o1)C(C)C [5-[5-(4-Methyl-phenyl)-pyridin-2-yl]-furan-2-carboxylic acid ((S)-2-methyl-1-methylcarbamoyl-propyl)-amide] | 180 nM |
| CNC(=O)[C@@H](NC(=O)c1ccc(-c2cccc(CNC(=O)c3ccc(C)c(C)c3)c2)o1)C(C)C [5-{3-[(3,4-Dimethyl-benzoylamino)-methyl]-phenyl}-furan-2-carboxylic acid ((S)-2-methyl-1-methylcarbamoyl-propyl)-amide] | 156 nM |
| CNC(=O)[C@@H](NC(=O)c1ccc(-c2cccc(CNC(=O)c3cccc(C#N)c3)c2)o1)C(C)C [5-{3-[(3-Cyano-benzoylamino)-methyl]-phenyl}-furan-2-carboxylic acid ((S)-2-methyl-1-methylcarbamoyl-propyl)-amide] | 160 nM |
| CNC(=O)[C@@H](NC(=O)c1ccc(-c2cccc(CNC(=O)c3cccc(N(C)C)c3)c2)o1)C(C)C [5-{3-[(3-Dimethylamino-benzoylamino)-methyl]-phenyl}-furan-2-carboxylic acid ((S)-2-methyl-1-methylcarbamoyl-propyl)-amide] | 213 nM |
| CNC(=O)[C@@H](NC(=O)c1ccc(-c2cccc(CNC(=O)c3cccc(C(C)C)c3)c2)o1)C(C)C [5-{3-[(3-Isopropyl-benzoylamino)-methyl]-phenyl}-furan-2-carboxylic acid ((S)-2-methyl-1-methylcarbamoyl-propyl)-amide] | 160 nM |
| CNC(=O)[C@@H](NC(=O)c1ccc(-c2cccc(CNC(=O)c3cccc(OC)c3)c2)o1)C(C)C [5-{3-[(3-Methoxy-benzoylamino)-methyl]-phenyl}-furan-2-carboxylic acid ((S)-2-methyl-1-methylcarbamoyl-propyl)-amide] | 163 nM |
| CNC(=O)[C@@H](NC(=O)c1ccc(-c2cccc(CNC(=O)c3cccc(C)c3)c2)o1)C(C)C [5-{3-[(3-Methyl-benzoylamino)-methyl]-phenyl}-furan-2-carboxylic acid ((S)-2-methyl-1-methylcarbamoyl-propyl)-amide] | 132 nM |
| CNC(=O)[C@@H](NC(=O)c1ccc(-c2cccc(CNC(=O)c3ccc(F)c(C(F)(F)F)c3)c2)o1)C(C)C [5-{3-[(3-Trifluoromethyl-4-fluoro-benzoylamino)-methyl]-phenyl}-furan-2-carboxylic acid ((S)-2-methyl-1-methylcarbamoyl-propyl)-amide] | 215 nM |
| CNC(=O)[C@@H](NC(=O)c1ccc(-c2cccc(CNC(=O)c3cccc(C(F)(F)F)c3)c2)o1)C(C)C [5-{3-[(3-Trifluoromethyl-benzoylamino)-methyl]-phenyl}-furan-2-carboxylic acid ((S)-2-methyl-1-methylcarbamoyl-propyl)-amide] | 49 nM |
| CNC(=O)[C@@H](NC(=O)c1ccc(-c2cccc(CNC(=O)c3ccc(C#N)cc3)c2)o1)C(C)C [5-{3-[(4-Cyano-benzoylamino)-methyl]-phenyl}-furan-2-carboxylic acid ((S)-2-methyl-1-methylcarbamoyl-propyl)-amide] | 185 nM |
| CNC(=O)[C@@H](NC(=O)c1ccc(-c2cccc(CNC(=O)c3ccc(N(C)C)cc3)c2)o1)C(C)C [5-{3-[(4-Dimethylamino-benzoylamino)-methyl]-phenyl}-furan-2-carboxylic acid ((S)-2-methyl-1-methylcarbamoyl-propyl)-amide] | 110 nM |
| CNC(=O)[C@@H](NC(=O)c1ccc(-c2cccc(CNC(=O)c3ccc(C(C)C)cc3)c2)o1)C(C)C [5-{3-[(4-Isopropyl-benzoylamino)-methyl]-phenyl}-furan-2-carboxylic acid ((S)-2-methyl-1-methylcarbamoyl-propyl)-amide] | 225 nM |
| CNC(=O)[C@@H](NC(=O)c1ccc(-c2cccc(CNC(=O)c3ccc(OC)cc3)c2)o1)C(C)C [5-{3-[(4-Methoxy-benzoylamino)-methyl]-phenyl}-furan-2-carboxylic acid ((S)-2-methyl-1-methylcarbamoyl-propyl)-amide] | 155 nM |

Other lines, results leading:

| IC50 | SMILES |
| --- | --- |
| 23 nM | CNC(=O)[C@@H](NC(=O)c1ccc(-c2ccc(-c3ccncc3)cn2)o1)C1CCCCC1 [5-[3,4′]Bipyridinyl-6-yl-furan-2-carboxylic acid ((S)-cyclohexyl-methylcarbamoyl-methyl)-amide] |
| 415 nM | CNC(=O)[C@@H](NC(=O)c1ccc(-c2cccc(CN)c2)o1)C1CCOCC1 [5-[3-(Aminomethyl)phenyl]-N-[(1S)-2-(methylamino)-2-oxo-1-(tetrahydro-2H-pyran-4-yl)ethyl]-2-furamide] |
| 6 nM | CNC(=O)[C@@H](NC(=O)c1ccc(-c2ccc(OCc3cc(C)nn3C)cc2)o1)C1CCCCC1 [5-[4-(2,5-Dimethyl-2H-pyrazol-3-ylmethoxy)-phenyl]-furan-2-carboxylic acid ((S)-cyclohexyl-methylcarbamoyl-methyl)-amide] |
| 27 nM | CNC(=O)[C@@H](NC(=O)c1ccc(-c2ccc(OCc3[nH]cnc3C)cc2)o1)C1CCOCC1 [5-[4-(5-Methyl-3H-imidazol-4-ylmethoxy)-phenyl]-furan-2-carboxylic acid [(S)-methylcarbamoyl-(tetrahydro-pyran-4-yl)-methyl]-amide] |
| 80 nM | CNC(=O)[C@@H](NC(=O)c1ccc(-c2ccc(OCc3cc(C)n(C)n3)cn2)o1)C(C)C [5-[5-(1,5-Dimethyl-1H-pyrazol-3-ylmethoxy)-pyridin-2-yl]-furan-2-carboxylic acid ((S)-2-methyl-1-methylcarbamoyl-propyl)-amide] |
| 6 nM | CNC(=O)[C@@H](NC(=O)c1ccc(-c2ccc(OCc3cc4ccccc4o3)cn2)o1)C1CCCCC1 [5-[5-(1-Benzofuran-2-ylmethoxy)pyridin-2-yl]-N-[(1S)-1-cyclohexyl-2-(methylamino)-2-oxoethyl]furan-2-carboxamide] |
| 2 nM | CNC(=O)[C@@H](NC(=O)c1ccc(-c2ccc(OCc3cc(C)nn3C)cn2)o1)C1CCCCC1 [5-[5-(2,5-Dimethyl-2H-pyrazol-3-ylmethoxy)-pyridin-2-yl]-furan-2-carboxylic acid ((S)-cyclohexyl-methylcarbamoyl-methyl)-amide] |
| 380 nM | CNC(=O)[C@@H](NC(=O)c1ccc(-c2ccc(-c3cnc(N)nc3)cn2)o1)C(C)C [5-[5-(2-Amino-pyrimidin-5-yl)-pyridin-2-yl]-furan-2-carboxylic acid ((S)-2-methyl-1-methylcarbamoyl-propyl)-amide] |
| 47 nM | CCOc1ccc(-c2ccc(-c3ccc(C(=O)N[C@H](C(=O)NC)C(C)C)o3)nc2)cc1 [5-[5-(4-Ethoxy-phenyl)-pyridin-2-yl]-furan-2-carboxylic acid ((S)-2-methyl-1-methylcarbamoyl-propyl)-amide] |
| 29 nM | CNC(=O)[C@@H](NC(=O)c1ccc(-c2ccc(-c3ccc(OC(C)C)cc3)cn2)o1)C(C)C [5-[5-(4-Isopropoxy-phenyl)-pyridin-2-yl]-furan-2-carboxylic acid ((S)-2-methyl-1-methylcarbamoyl-propyl)-amide] |
| 415 nM | CNC(=O)[C@@H](NC(=O)c1ccc(-c2ccc(OCc3[nH]cnc3C)cn2)o1)C1CCOCC1 [5-[5-(5-Methyl-3H-imidazol-4-ylmethoxy)-pyridin-2-yl]-furan-2-carboxylic acid [(S)-methylcarbamoyl-(tetrahydro-pyran-4-yl)-methyl]-amide] |
| 17 nM | CCNC(=O)[C@@H](NC(=O)c1ccc(-c2ccc(OCc3ccccc3)cn2)o1)C1CCCCC1 [5-[5-(Benzyloxy)pyridin-2-yl]-N-[(1S)-1-cyclohexyl-2-(ethylamino)-2-oxoethyl]furan-2-carboxamide] |
| 10 nM | CNC(=O)[C@@H](NC(=O)c1ccc(-c2ccc(OCc3ccccc3)cn2)o1)C1CCCCC1 [5-[5-(Benzyloxy)pyridin-2-yl]-N-[(1S)-1-cyclohexyl-2-(methylamino)-2-oxoethyl]furan-2-carboxamide] |
| 3 nM | CNC(=O)[C@@H](NC(=O)c1ccc(-c2ccc(OCc3ccccc3)cn2)o1)C1CCOCC1 [5-[5-(Benzyloxy)pyridin-2-yl]-N-[(1S)-2-(methylamino)-2-oxo-1-(tetrahydro-2H-pyran-4-yl)ethyl]furan-2-carboxamide] |
